Experimental data published in US12060347B2 (BRISTOL-MYERS SQUIBB COMPANY, priority 2016, dated 2024).

target: T1, human PAR4 (Homo sapiens, UniProt Q96RI0); experiment: PAR4 FLIPR assay: antagonism of agonist-peptide-induced calcium mobilization in PAR4-expressing HEK293 cells; type: cell-based; conditions: H-Ala-Phe(4-F)-[…]NH2-induced intracellular calcium mobilization, 11-point curves
T1 construct: expressed in transfected cells; host or cells: HEK293 PAR4 Clone 1.2A (BMS Arctic ID 383940)
T1 sequence (Q96RI0 18-385): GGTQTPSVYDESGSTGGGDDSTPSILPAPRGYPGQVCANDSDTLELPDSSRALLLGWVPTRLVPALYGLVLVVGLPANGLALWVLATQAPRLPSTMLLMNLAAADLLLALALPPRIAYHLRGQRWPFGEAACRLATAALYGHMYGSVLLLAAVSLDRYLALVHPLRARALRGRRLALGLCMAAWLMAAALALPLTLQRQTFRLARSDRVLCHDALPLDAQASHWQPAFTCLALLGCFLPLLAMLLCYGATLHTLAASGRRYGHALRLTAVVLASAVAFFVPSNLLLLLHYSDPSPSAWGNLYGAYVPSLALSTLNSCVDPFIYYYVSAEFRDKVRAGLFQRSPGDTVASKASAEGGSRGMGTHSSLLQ

Row | SMILES | IC50 [nM]
1 | COCc1cnc2c(-c3nc4c(Cl)cc(OCCNS(=O)(=O)c5ccccc5)cc4s3)cc(C)cc2n1 [Example 99, N-(2-(4-chloro-2-(2-(methoxymethyl)-7-methylquinoxalin-5-yl)benzo[d]thiazol-6-yloxy)ethyl)benzenesulfonamide] | 0.6
2 | COCc1cnc2c(-c3nc4c(Cl)cc(OCCNS(=O)(=O)c5ccccc5F)cc4s3)cc(C)cc2n1 [Example 100, N-(2-(4-chloro-2-(2-(methoxymethyl)-7-methylquinoxalin-5-yl)benzo[d]thiazol-6-yloxy)ethyl)-2-fluorobenzenesulfonamide] | 0.5
3 | COCc1cnc2c(-c3nc4c(Cl)cc(OCCNS(=O)(=O)c5ccc(F)cc5)cc4s3)cc(C)cc2n1 [Example 101, N-(2-(4-chloro-2-(2-(methoxymethyl)-7-methylquinoxalin-5-yl)benzo[d]thiazol-6-yloxy)ethyl)-4-fluorobenzenesulfonamide] | 0.2
4 | COCc1cnc2c(-c3nc4c(Cl)cc(OCCNS(=O)(=O)c5cccc(F)c5)cc4s3)cc(C)cc2n1 [Example 102, N-(2-(4-chloro-2-(2-(methoxymethyl)-7-methylquinoxalin-5-yl)benzo[d]thiazol-6-yloxy)ethyl)-3-fluorobenzenesulfonamide] | 0.9
5 | COCc1cnc2c(-c3nc4c(C#N)cc(OC)cc4s3)cc(C)cc2n1 [Example 103, 6-methoxy-2-(2-(methoxymethyl)-7-methylquinoxalin-5-yl)benzo[d]thiazole-4-carbonitrile] | 2.5
6 | COCc1cnc2c(-c3nc4c(C5CC5)cc(OCCNS(=O)(=O)c5ccccc5)cc4s3)cc(C)cc2n1 [Example 104, N-(2-(4-cyclopropyl-2-(2-(methoxymethyl)-7-methylquinoxalin-5-yl)benzo[d]thiazol-6-yloxy)ethyl)benzenesulfonamide] | 1.7
7 | COCc1cnc2c(-c3nc4c(C5CC5)cc(OCCNS(=O)(=O)c5ccc(F)cc5)cc4s3)cc(C)cc2n1 [Example 105, N-(2-(4-cyclopropyl-2-(2-(methoxymethyl)-7-methylquinoxalin-5-yl)benzo[d]thiazol-6-yloxy)ethyl)-4-fluorobenzenesulfonamide] | 8.1
8 | COCc1cnc2c(-c3nc4ccc(OCCNS(=O)(=O)c5ccccc5)cc4s3)cc(C)cc2n1 [Example 106, N-(2-(2-(2-(methoxymethyl)-7-methylquinoxalin-5-yl)benzo[d]thiazol-6-yloxy)ethyl)benzenesulfonamide] | 1.6
9 | COCc1cnc2c(-c3nc4ccc(OCCNS(=O)(=O)c5ccc(F)cc5)cc4s3)cc(C)cc2n1 [Example 107, 4-fluoro N-(2-(2-(2-(methoxymethyl)-7-methylquinoxalin-5-yl)benzo[d]thiazol-6-yloxy)ethyl)benzenesulfonamide] | 2.8
10 | Cc1cc(-c2nc3c(C)cc(OCCNS(=O)(=O)c4ccc(F)cc4)cc3s2)c2ncc(C(C)F)nc2c1 (stereo not shown) [Example 108, 4-fluoro N-(2-(2-(2-(1 fluoroethyl)-7-methylquinoxalin-5-yl)-4-methylbenzo[d]thiazol-6-yloxy)ethyl)benzenesulfonamide] | 1100
11 | COCc1cnc2c(-c3nc4c(C#N)cc(OCCNS(=O)(=O)c5ccc(F)cc5)cc4s3)cc(C)cc2n1 [Example 109, N-(2-(4-cyano-2-(2-(methoxymethyl)-7-methylquinoxalin-5-yl)benzo[d]thiazol-6-yloxy)ethyl)-4-fluorobenzenesulfonamide] | 8.3
12 | COc1cnc2c(-c3nc4c(C)cc(OCCOC(=O)Nc5ccccc5)cc4s3)cc(C)cc2n1 [Example 110, 2-(2-(2-methoxy-7-methylquinoxalin-5-yl)-4-methylbenzo[d]thiazol-6-yloxy)ethyl phenylcarbamate] | 12
13 | COc1cnc2c(-c3nc4c(C)cc(OCCOC(=O)Nc5cccnc5)cc4s3)cc(C)cc2n1 [Example 111, 2-(2-(2-methoxy-7-methylquinoxalin-5-yl)-4-methylbenzo[d]thiazol-6-yloxy)ethyl pyridin-3-ylcarbamate] | 1.1
